We go through 5 molecules from patent US20220211698A1, “ANTI MALARIAL COMPOUNDS” (INSTITUTO DE MEDICINA MOLECULAR, priority 2020, published 2022).

“Also recorded” adds a separate entry of the source.

In general, IC50 refers to the concentration at which inhibition is half-maximal. A word on the Kd: it is the equilibrium constant for the complex coming apart.

Series [1] concerns PfUIS3@Pb. Put plainly: Reversal of C4 effect by autophagy inhibitor, PfUIS3@Pb-infected Huh7 cells. The series is classed as cell-based, P. berghei expressing P. falciparum UIS3. Particulars: 50 μM with 1 μM C4, added 2 h before infection, 24 h post-infection. As to the method: C4 and Chloroquine were added to the cells 2 h before infection. The effect was analysed at 24 h post-infection using flow cytometry by quantifying the EEFs number in infected cells. Data represent means±SEM. Pooled data from 4 independent experiments are presented. Statistical significance was assessed using the unpaired two-tailed t-test. *** P<0.001, **** P<0.0001.
To perform the flow cytometry analysis, Huh7 cells were seeded on a 24 well plate (50,000 cells/well) in RPMI and DMEM media respectively. The next day, media was replaced with different compounds (10 μM)/C4 (various conc.)/1 μM C4/1 μM C4+50 μM Chloroquine containing media, as appropriate in different experiments. Cells were then infected with P. bergehi/PfUIS3@Pb parasites and analysed by flow cytometry at 2 h/24 h post infection. DMSO was used as control and Primaquine was used as the positive control. For flow cytometry, infected cells were trypsinized and resuspended in 300 μl of media. 50 μl of each sample were analysed on BD Accuri C6 as described in Hanson et al. Data were analysed using FlowJo software. […]

Series [2] has as its system P. berghei. Put plainly: Reversal of C4 effect by autophagy inhibitor, P. berghei-infected Huh7 cells. The series is classed as cell-based. Particulars: 50 μM with 1 μM C4, added 2 h before infection, 24 h post-infection.
The test system of series [3] is PfUIS3@Pb. Put plainly: Immunofluorescence microscopy of EEF number and size, PfUIS3@Pb-infected Huh7 cells. It counts as cell-based, P. berghei expressing P. falciparum UIS3. Particulars: 1 μM. The method, then: (§1) To assess C4 effect on EEF number and size, Huh7 cells were plated on glass coverslips (40,000/cover slip), treated with 1 μM C4 or 0.0001% DMSO (control) and after 2 h infected with P. berghei/PfUIS3@Pb sporozoites (40,000/cover slip). Huh7 cells (obtained from ATCC) were cultured under standard conditions in RPMI 1640 and DMEM medium (Gibco Invitrogen) respectively supplemented with 10% FCS, 1% glutamine, 1% non-essential amino acids (RPMI 1640), 1% penicillin/streptomycin, and 1% Hepes (RPMI 1640).
(§2) To characterize PfUIS3@Pb parasite line, Huh7 cells were seeded on cover slips as above and infected with WT (P. berghei ANKA (507cl1)/PfUIS3@Pb sporozoites (40,000/cover slip). After 24 h, cells were fixed in 4% paraformaldehyde (ChemCruz) for 15 min at room temperature (RT), permeabilized/blocked (PBS, 0.1% Triton X-100, 1% BSA) for 1 h at RT and incubated with primary antibodies (diluted in blocking solution) for overnight at 4° C. Cells were then washed with PBS, incubated with AlexaFluor-conjugated secondary antibodies (Jackson ImmunoResearch Laboratories) and Hoechst 33342 (Invitrogen) for 1 h at RT and washed again. The coverslips were mounted with Fluoromount (SouthernBiotech). […] GFP signal was detected using AlexaFluor 488 conjugated anti GFP (rabbit polyclonal, Invitrogen, A-21311, 1:500) antibody. […] All images were processed and analysed using ImageJ.

Series [4] has as its system PfUIS3@Pb. In words: PfUIS3@Pb infection of Huh7 cells (flow cytometry EEF count). The following applies: 24 h post-infection. The series is classed as cell-based, P. berghei expressing P. falciparum UIS3. The source says: The following two Plasmodium parasite strains were used in the PHS: i) the rodent wild-type (WT) GFP expressing P. berghei ANKA parasite strain (259cl2, obtained from the Leiden Malaria Research Group); and ii) the parasite line, PfUIS3@Pb, created by inserting the gene encoding P. falciparum UIS3 with an added a 2 HA tag (UIS3-HA) into the P. berghei parasite (507cl1, obtained from the Leiden Malaria Research Group) at the UIS3 locus under the control of native 5′ and 3′ regulatory sequences. More particularly, to replace the P. berghei UIS3 open reading frame (ORF) with UIS3 ORF of P. falciparum, a double crossover recombination was performed as described in FIG. 2A. Transfection was carried out by electroporation of purified schizonts as previously described. […]
The PHS was performed using Huh7 cells infected with sporozoites from either parasite lines with or without adding each of the compounds, at a concentration of 10 μM, 2 h before sporozoite addition. Infection level was determined either by measuring luminescent levels of the GFP and firefly luciferase-expressing P. berghei ANKA (676m1cl1), (obtained from the Leiden Malaria Research Group) or the number of GFP-positive infected cells by flow cytometry, representing Plasmodium exo-erythrocytic form, EEF, (as PfUIS3@Pb parasite line express GFP). […]

In series [5] the test system is P. berghei ANKA. Put plainly: P. berghei infection of Huh7 cells (luciferase parasite load / flow cytometry EEF count). It counts as cell-based. The method, then:
The PHS was performed using Huh7 cells infected with sporozoites from either parasite lines with or without adding each of the compounds, at a concentration of 10 μM, 2 h before sporozoite addition. Infection level was determined either by measuring luminescent levels of the GFP and firefly luciferase-expressing P. berghei ANKA (676m1cl1), (obtained from the Leiden Malaria Research Group) or the number of GFP-positive infected cells by flow cytometry, representing Plasmodium exo-erythrocytic form, EEF, (as PfUIS3@Pb parasite line express GFP).
(§3) To perform the flow cytometry analysis, Huh7 cells were seeded on a 24 well plate (50,000 cells/well) in RPMI and DMEM media respectively. The next day, media was replaced with different compounds (10 μM)/C4 (various conc.)/1 μM C4/1 μM C4+50 μM Chloroquine containing media, as appropriate in different experiments. Cells were then infected with P. bergehi/PfUIS3@Pb parasites and analysed by flow cytometry at 2 h/24 h post infection. DMSO was used as control and Primaquine was used as the positive control. For flow cytometry, infected cells were trypsinized and resuspended in 300 μl of media. 50 μl of each sample were analysed on BD Accuri C6 as described in Hanson et al. Data were analysed using FlowJo software.
The IC50 for C4 in P. berghei ANKA-infected and PfUIS3@Pb-infected cells at 24 h. Post-infection was 93.3 nM and 188.2 nM, respectively. To analyze C4 dose-dependent effect, media were replaced with DMSO (0.0001%)/C4 (various conc.)-containing media. After 2 h, cells were infected with luciferase-expressing P. berghei sporozoites (10,000/well) and processed for Luciferase assay at 24 h post-infection. Flow cytometry was used to determine EEF counts.
(In flow cytometry, cells or beads pass a laser one at a time.)

The target of series [6] is UIS3-LC3 complex (Plasmodium falciparum, UniProt Q8IEU1). Put plainly: Isothermal calorimetry (ITC), C4 titrated into saturated solution of UIS3 with LC3. It counts as binding, P. falciparum. A general note: ITC needs no label: the signal is the heat of the interaction.
Method: ITC experiments were performed using MicroCal-ITC 200 (GE healthcare) at 25° C. The data were analyzed using MicroCal ITC-origin analysis software based on one-site binding reaction. For direct interaction studies, a 10 μM concentration of pfUIS3 was titrated against 0.100 μM of LC3. For competition assay, a saturated solution of UIS3 with LC3 was titrated against 100 μM of C4. C4 was resuspended in the same final buffer (with 2% DMSO) in which UIS3 and LC3 was dissolved.
Series [7] deals with P. berghei. In words: P. berghei infection in Atg5+/+ and Atg5-/- mouse embryonic fibroblasts. The following applies: 10 μM. It counts as cell-based. The method, then: Data represent means±SEM (n=3). Statistical significance was assessed using the unpaired two-tailed t-test. ns: non-significant, **** P<0.0001.
To test the hypothesis that high-affinity binding of C4 to the UIS3-LC3 complex could interfere with the function of the UIS3-LC3 complex to cause a decrease Plasmodium infection by interfering with the parasite's ability to evade host cell autophagy, genetic and chemicals tools were used to assess the anti-parasitic activity of C4 in autophagy-competent and autophagy-deficient cells.
MEFs used in these studies were obtained from the Riken BioResource Research Center (Atg5^+/+ (RCB2710) and Atg5^−/− (RCB2711). (Kuma et al.) MEFs were cultured in DMEM supplemented as described above for Huh7 cells. MEFs were validated through quantitative reverse transcription PCR.

Series [8] relates to P. berghei ANKA. In words: Immunofluorescence microscopy of EEF number and size, P. berghei-infected Huh7 cells. The series is classed as cell-based. The following applies: 1 μM. The method, then:
as §1, §2

Series [9] has as its system P. berghei. In words: Sporozoite invasion of Huh7 cells, EEFs at 2 h post-infection by flow cytometry. The series is classed as cell-based. Particulars: 1 μM, added 2 h before infection. The method, then:
FIG. 5E is a bar graph showing the effect of 1 μM C4 on P. berghei numbers in Huh7 cells as quantified by number of EEFs at 2 h post-infection. C4 was added to the cells 2 h before infection. EEFs were quantitated using flow cytometry. Data represent means±SEM (n=3). Non-parametric two-tailed Mann-Whitney test was used to compare the effect of DMSO control and C4. ns: non-significant.
as §3

The subject of series [10] is HeLa cells. Put plainly: Starvation-induced autophagy in HeLa cells, p62 immunoblot. Particulars: 1 μM for 24 h, then EBBS amino-acid starvation 7 h. The series is classed as cell-based. As to the method:
FIG. 8B is a bar graph showing the p62 levels before and after amino acid starvation were calculated as the ratio of p62 to y tubulin (loading control). Data represent means±SEM (n=2). Statistical significance was assessed using the unpaired two-tailed t-test. ns: non-significant.
As C4 acts on a protein-protein interaction at the host-parasite interface, the effect of C4 administration on host cell normal autophagy activity was determined. To that end, autophagy was induced in HeLa cells in the presence and absence of C4.
To perform the foregoing study, HeLa cells (ATCC), which had been maintained under standard culture conditions in DMEM medium supplemented with 10% FCS, 1% glutamine, 1% penicillin/streptomycin, were treated with 1 μM C4 or 0.0001% DMSO (control) for 24 h, and then changed from normal growth medium to EBBS to induce amino-acid starvation dependent autophagy. After 7 h, cells were collected in lysis buffer (50 mM NaCl, 50 mM Tris-Cl pH 8, 5 mM EDTA pH 8, 1% Triton X-100, protease inhibitor) and analysed by western blot using the following antibodies: p62 (rabbit polyclonal, Sigma-Aldrich, P0067, 1:1000) and gamma-tubulin (mouse monoclonal, Sigma-Aldrich, T5326, 1: 10,000). p62 levels were measured by quantifying the ratio of p62 to tubulin signals using Image Lab.

A short description of series [11]: Solubility in DMSO. It counts as physicochemical.
Series [12] addresses Microtubule-associated protein 1A/1B-light chain 3 (LC3), purified recombinant (UniProt Q9GZQ8). Put plainly: ITC, 100 µM LC3 titrated into 10 µM PfUIS3, 25 °C, one-site model.

Take `CCN(CC)CCCC(C)Nc1ccnc2cc(Cl)ccc12` (stereo not shown) [Chloroquine]: the “Reversal of anti-parasitic effect of C4 (EEF number)” value in series [1] is “can be reverted”; in series [1] (listed as chloroquine), “rescued the C4 effect”; in series [2], “can be reverted”; in series [2] (listed as chloroquine), “rescued the C4 effect”.
As for `N#Cc1ccc(C(=O)N2CCN(Cc3ccc(-c4noc(-c5cccc(C(F)(F)F)c5)n4)cc3)CC2)cc1` [Compound C4], the “Parasite development, as measured by parasite area” value in series [3] and in [8] was “modest impact” each time. Also, the “Number of infected cells (microscopy)” value in [3] (added 2 h before infection) and in series [8] (added 2 h before infection) was “significant decrease” throughout. Also, in [4] (10 μM, added 2 h before infection, Huh7 cells), the “Number of EEFs / decrease in infection in phenotypic screen” value is on record as “most effective compound; also recorded: highest decrease in infection”. The IC50 stood at 188 nM in [4] (PfUIS3@Pb-infected Huh7 cells, flow cytometry) and 93.3 nM in [5] (Plasmodium berghei, Huh-7, P. berghei ANKA-infected Huh7 cells, 24 h post-infection, luciferase assay). Also, the “Effect on infection over time” value in [5] (1 μM, from very early time-point, maintained through at least 48 h post-infection) was “decreased infection”. For the same molecule, the “Parasite load / decrease in infection in phenotypic screen” value in series [5] (10 μM, added 2 h before infection, 24 h post-infection, Huh7 cells) is “most effective compound; also recorded: highest decrease in infection”. Moreover, the “Affinity to UIS3-LC3 complex relative to direct UIS3-LC3 interaction” value in series [6] was 10 fold. The molecule also had a dissociation constant (Kd) in series [6] (25° C., one-site binding model, 100 μM C4 into UIS3 saturated with LC3) of 241 ± 1.1 nM. Moreover, the “Reduction in infection in Atg5−/− MEFs” value in series [7] (autophagy-deficient cells) is given as “did not cause any reduction in infection”. Further, the “Impact on infection in Atg5+/+ MEFs” value in series [7] (control cells) is recorded as “comparable to that observed for infected Huh7 cells”. For the same molecule, the “Effect on sporozoite invasion of host cells” value in series [9] is “did not affect”. Besides, the “Host cell response to exogenous autophagy stimulus (p62 levels)” value in series [10] is on record as “does not cause any impairment”.
Turning to `Cc1c/c(=N\C(=O)N2CCC3(CC2)OCCO3)nc2c3ccccc3oc(O)c1-2` [Compound C8], in [11], the “Solubility in DMSO” value is “insolubilities in DMSO”.
On the same count and under the same terms, next, `Cc1ccc(C)c(NC(=O)N2CCN(c3ccc(-c4noc(C5CCCCC5)n4)cc3)CC2)c1` [Compound C9]: “insolubilities in DMSO”.
Consider “Plasmodium falciparum Upregulated in infective sporozoites 3 (UIS3), purified recombinant myc-UIS3”, for which the dissociation constant Kd in [12] is 2150 nM.
